Measurements published in PMC10558864 (Heliyon, 2023).
Where no end group is shown, it is not given here.

Legend:
[1] = tested on: E. coli^N (standard strain); type: cell-based, Escherichia coli; details: micro broth dilution, 37 °C, 24 h, MTT indicator, triplicates
[2] = tested on: microorganisms tested (standard and resistant bacterial strains); assay: MIC range over the strains tested and therapeutic index; type: cell-based
S. pyogenes = type: cell-based, Streptococcus pyogenes; details: micro broth dilution, 37 °C, 24 h, MTT indicator, triplicates
human erythrocytes = assay: Hemolytic activity; type: cell-based; details: 1% human erythrocytes in PBS pH 7.40, 37 °C, 1 h, absorbance 570 nm
[3] = tested on: E. coli^R (resistant strain); type: cell-based, Escherichia coli; details: micro broth dilution, 37 °C, 24 h, MTT indicator, triplicates
MRSA [4] = type: cell-based, methicillin-resistant Staphylococcus aureus; details: FIC(A) = MIC of antibiotic in the presence of peptide / MIC of antibiotic alone
E. coli^R = type: cell-based, Escherichia coli
S. typhi^N = type: cell-based, Salmonella typhi; details: micro broth dilution, 37 °C, 24 h, MTT indicator, triplicates
MRSA [5] = type: cell-based, methicillin-resistant Staphylococcus aureus; details: micro broth dilution, 37 °C, 24 h, MTT indicator, triplicates
K. pneumoniae = type: cell-based, Klebsiella pneumoniae; details: micro broth dilution, 37 °C, 24 h, MTT indicator, triplicates
S. aureus = type: cell-based, Staphylococcus aureus; details: micro broth dilution, 37 °C, 24 h, MTT indicator, triplicates
S. typhi^R [6] = type: cell-based, Salmonella typhi; details: micro broth dilution, 37 °C, 24 h, MTT indicator, triplicates
S. typhi^R [7] = type: cell-based, Salmonella typhi
[8] = FIC(A) = MIC of antibiotic in the presence of peptide / MIC of antibiotic alone
[9] = checkerboard, FIC(A)+FIC(P), 37 °C, 24 h

Sequence: GIKGALKSILFAL [BRGP-005]
- Minimum inhibitory concentration; MIC, E. coli^N [1]: 470 µM
- Therapeutic Indices (MHC/MIC) ([2]; range over the MIC range): 0.80 to 0.40
- MIC range ([2]; range over the strains tested, micro broth dilution): 235 to 470 µM
- Minimum inhibitory concentration; MIC, S. pyogenes (S. pyogenes): 470 µM
- MHC (minimum concentration of peptide that causes hemolysis) (human erythrocytes): 0.188 mM
- Minimum inhibitory concentration; MIC, E. coli^R [3]: 235 µM
- FIC index of Cefotaxime in combination with the peptide, MRSA (MRSA [4]): 0.50
- FIC index of Chloramphenicol in combination with the peptide, MRSA (MRSA [4]): 0.50
- FIC index of Erythromycin in combination with the peptide, MRSA (MRSA [4]): 1.00
- FIC index of Cefotaxime in combination with the peptide, E. coli^R (E. coli^R; [8]): 0.25
- FIC index of Chloramphenicol in combination with the peptide, E. coli^R (E. coli^R; [8]): 0.25
- FIC index of Erythromycin in combination with the peptide, E. coli^R (E. coli^R; [8]): 0.12
- FIC index of peptide in combination with Cefotaxime, E. coli^R (E. coli^R; [9]): 2.25
- FIC index of peptide in combination with Chloramphenicol, E. coli^R (E. coli^R; [9]): 1.25
- FIC index of peptide in combination with Erythromycin, E. coli^R (E. coli^R; [9]): 0.37
- Minimum inhibitory concentration; MIC, S. typhi^N (S. typhi^N): >1879 µM
- Minimum inhibitory concentration; MIC, MRSA (MRSA [5]): >1879 µM
- Minimum inhibitory concentration; MIC, K. pneumoniae (K. pneumoniae): >1879 µM
- Minimum inhibitory concentration; MIC, S. aureus (S. aureus): >1879 µM
- Minimum inhibitory concentration; MIC, S. typhi^R (S. typhi^R [6]): 470 µM
- FIC index of Cefotaxime in combination with the peptide, S. typhi^R (S. typhi^R [7]; [8]): 0.50
- FIC index of Chloramphenicol in combination with the peptide, S. typhi^R (S. typhi^R [7]; [8]): 1.00
- FIC index of Erythromycin in combination with the peptide, S. typhi^R (S. typhi^R [7]; [8]): 0.50
- FIC index of peptide in combination with Cefotaxime, S. typhi^R (S. typhi^R [7]; [9]): 0.75
- FIC index of peptide in combination with Chloramphenicol, S. typhi^R (S. typhi^R [7]; [9]): 1.032
- FIC index of peptide in combination with Erythromycin, S. typhi^R (S. typhi^R [7]; [9]): 0.63
